Literature values in EP1017727B1, “COMPOSITION AND PHARMACEUTICAL PREPARATION CONTAINING SAME FOR THE TREATMENT OF HERPES AND RELATED VIRAL INFECTIONS” (priority 1997, dated 1999).
Converted amounts (≈) assume the structure as drawn.

Tested on: HSV-1

| Compound | IC50 against HSV-1 [µg/mL] |
| --- | --- |
| geponin | 25 |
| O=Cc1cc(O)c(O)c(O)c1 [gallic aldehyde] | 12.5 (≈ 81.1 µM) |
